This note sets out measurements from patent publication EP3002006A1, “Pharmaceutical composition capable for the incorporation Febuxostat in the crystalline modifications F10, II, G and A” (Bluepharma - Industria Farmacêutica, S.A., priority 2014, dated 2016).

Values after ≈ are worked out from the molar mass of the structure shown. Where two headings read alike, the source gives them in different places.

Series [1] can be described thus: Solubility of crystalline modifications of Febuxostat in phosphate buffer. The format is physicochemical.
A short description of series [2]: In-vitro dissolution of tablets, Ph. Eur. 2.9.3 / USP <711> Method 2 (Paddle Apparatus). The format is physicochemical. As to conditions: Figures 2 and 3; same excipient mixture as example 1. Here is the method:
The in-vitro dissolution of tablets according to examples 2 to 5 were analyzed according to Ph. […]

A word on the Solubility: it is how much of the substance goes into solution per volume. With `Cc1nc(-c2ccc(OCC(C)C)c(C#N)c2)sc1C(=O)O` [Form "A", 2-[3-cyano-4-(2-methylpropoxy)phenyl]-4-methylthiazole-5-carboxylic acid], the Solubility in series [1] (n=3) was 0,10 mg/ml. Besides, the “influence on dissolution profile of interchange of crystalline form F10 by another crystalline form” value in series [2] is recorded as “does not influence the dissolution profile significantly”.
`Cc1nc(-c2ccc(OCC(C)C)c(C#N)c2)sc1C(=O)O` [Form "F10", 2-[3-cyano-4-(2-methylpropoxy)phenyl]-4-methylthiazole-5-carboxylic acid]: the Solubility in series [1] (aqueous buffer, n=3, read-out: Solubility) came to 260 µg/mL (≈ 822 µM).
For the molecule `Cc1nc(-c2ccc(OCC(C)C)c(C#N)c2)sc1C(=O)O` [Form "G", 2-[3-cyano-4-(2-methylpropoxy)phenyl]-4-methylthiazole-5-carboxylic acid], the Solubility in series [1] (n=3) is 0,13 mg/ml. In addition, the “influence on dissolution profile of interchange of crystalline form F10 by another crystalline form” value in series [2] was “does not influence the dissolution profile significantly”.
On the same counts, the results for `Cc1nc(-c2ccc(OCC(C)C)c(C#N)c2)sc1C(=O)O` [Form "II", 2-[3-cyano-4-(2-methylpropoxy)phenyl]-4-methylthiazole-5-carboxylic acid] are 0,36 mg/ml and “does not influence the dissolution profile significantly”.
